One series can be described thus: in vivo. The settings on record: mouse, iv, 2 mg/kg.
The subject of series [1] is doxorubicin-resistant HeLa cells. Put plainly: In vitro cytotoxicity on doxorubicin-resistant cells. The series is classed as cell-based. The settings on record: even at a concentration of 5 mg L^−1. The procedure:
Next, the cytotoxicity of doxorubicin-loaded nanospheres towards HeLa cells was evaluated with 3-(4, 5-dimethylthiazol-2-yl)-2, 5-diphenyltetrazolium bromide (MTT) assay. HeLa cells (1×10^4 cells per well) were seeded in the 96-well plates. After culture for 24 h, the cells were exposed to the doxorubicin solution and doxorubicin-loaded liquid metal nanoparticles with different concentrations of doxorubicin for 24 h, followed by adding 20 μl of the MTT solution (5 mg mL^−1). After 4 h of incubation, the medium was removed, and the cells were mixed with 150 μl of dimethyl sulfoxide. The absorbance was measured at a test wavelength of 570 nm and a reference wavelength of 630 nm by a microplate reader (Infinite M200 PRO, Tecan).
Next, the in vitro cytotoxicity of doxorubicin loaded ligand-capped liquid metal nanoparticles towards doxorubicin-resistant HeLa cells was investigated.

A short description of series [2]: Pharmacokinetics, doxorubicin concentration in blood plasma after intravenous injection. The settings on record: mouse, 2 mg/kg.

A word on the Cmax: it is the peak of the concentration-time curve. A word on the MRT: it is the average time that molecules of a dose stay in the body. For orientation: half-life means the time needed for the level to fall by half in the phase considered. A high value points to slow decline. In the series “in vivo”, `COc1cccc2c1C(=O)c1c(O)c3c(c(O)c1C2=O)C[C@@](O)(C(=O)CO)C[C@@H]3O[C@H]1C[C@H](N)[C@H](O)[C@H](C)O1` [Doxorubicin] yielded a Cmax of 1.45 ± 0.06 µg/mL. In series [1], the cytotoxicity result was “did not show any obvious cytotoxicity”. Also, in series [2], the MRT is 2.8 ± 0.61 h and the half-life is 1.11 ± 0.02 h.

Source of the values: patent publication US20180360767A1, “BIOCOMPATIBLE PARTICLES AND METHODS OF MAKING AND USE THEREOF” (priority 2015, published 2018).
